Test results published in US20050009840A1 (SUGEN, INC., priority 2003, published 2005).

Target: T1, HGFR (Homo sapiens, UniProt P08581)
T1 construct: purchased Upstate 14-526
Assay: HGFR continuous-coupled spectrophotometric assay
Type: biochemical
Conditions: at 1 μM; Table 8, library procedure 43; read-out: % Inhibition (percent c-MET inhibition)

T1 sequence (P08581 974-1390 limits assumed): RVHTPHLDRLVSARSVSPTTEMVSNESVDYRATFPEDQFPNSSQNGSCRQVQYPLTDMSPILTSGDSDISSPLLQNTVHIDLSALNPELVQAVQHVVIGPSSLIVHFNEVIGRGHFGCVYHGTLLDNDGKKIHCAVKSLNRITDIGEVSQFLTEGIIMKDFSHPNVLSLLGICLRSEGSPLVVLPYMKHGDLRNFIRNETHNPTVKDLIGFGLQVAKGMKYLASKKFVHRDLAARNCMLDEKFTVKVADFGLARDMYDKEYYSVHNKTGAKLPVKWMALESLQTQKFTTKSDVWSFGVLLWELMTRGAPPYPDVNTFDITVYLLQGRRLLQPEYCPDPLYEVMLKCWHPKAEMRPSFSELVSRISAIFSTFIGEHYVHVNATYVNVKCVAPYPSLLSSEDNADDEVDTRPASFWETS

SMILES | inhibition at 1 µM [%]
CC1CN(C(=O)c2ccc(-c3cnc(N)c(OCc4nccn4Cc4ccccc4)c3)cc2)CC(C)N1 (centres unmarked) | 11
CC1CN(C(=O)c2ccc(-c3cnc(N)c(OCc4ccc(C#N)cc4)c3)cc2)CC(C)N1 (centres unmarked) | 13
CC1CN(C(=O)c2ccc(-c3cnc(N)c(OCc4cccc(C#N)c4)c3)cc2)CC(C)N1 (centres unmarked) | 11
CC1CN(C(=O)c2ccc(-c3cnc(N)c(OCc4cc(F)cc(F)c4)c3)cc2)CC(C)N1 (centres unmarked) | 12
CC1CN(C(=O)c2ccc(-c3cnc(N)c(OCc4cccc(Cl)c4Cl)c3)cc2)CC(C)N1 (centres unmarked) | 40
Cc1ccc(COc2cc(-c3ccc(C(=O)N4CC(C)NC(C)C4)cc3)cnc2N)cc1Cl (centres unmarked) | 27
CC1CN(C(=O)c2ccc(-c3cnc(N)c(OCc4cc(Cl)ccc4Cl)c3)cc2)CC(C)N1 (centres unmarked) | 32
CC1CN(C(=O)c2ccc(-c3cnc(N)c(OCc4nc(CS(=O)(=O)c5ccccn5)no4)c3)cc2)CC(C)N1 (centres unmarked) | 16
CC1CN(C(=O)c2ccc(-c3cnc(N)c(OCc4cc(-c5c(Cl)cccc5Cl)no4)c3)cc2)CC(C)N1 (centres unmarked) | 16
CC1CN(C(=O)c2ccc(-c3cnc(N)c(OCc4cccc(OC(F)(F)F)c4)c3)cc2)CC(C)N1 (centres unmarked) | 17
Cc1cc(COc2cc(-c3ccc(C(=O)N4CC(C)NC(C)C4)cc3)cnc2N)nc(-c2ccc(C(F)(F)F)cn2)n1 (centres unmarked) | 7
CC1CN(C(=O)c2ccc(-c3cnc(N)c(OCc4cc(F)ccc4Br)c3)cc2)CC(C)N1 (centres unmarked) | 21
CC1CN(C(=O)c2ccc(-c3cnc(N)c(OCc4cccc(Cl)c4F)c3)cc2)CC(C)N1 (centres unmarked) | 28
CC1CN(C(=O)c2ccc(-c3cnc(N)c(OCc4ccc(Cl)c(Cl)c4)c3)cc2)CC(C)N1 (centres unmarked) | 29
CC1CN(C(=O)c2ccc(-c3cnc(N)c(OCc4cc(F)c(F)cc4F)c3)cc2)CC(C)N1 (centres unmarked) | 20
CC1CN(C(=O)c2ccc(-c3cnc(N)c(OCc4ccc(F)c(F)c4F)c3)cc2)CC(C)N1 (centres unmarked) | 25
CC1CN(C(=O)c2ccc(-c3cnc(N)c(OCc4ccc(C(F)(F)F)cc4C(F)(F)F)c3)cc2)CC(C)N1 (centres unmarked) | 22
CC1CN(C(=O)c2ccc(-c3cnc(N)c(OCc4c(F)ccc(F)c4F)c3)cc2)CC(C)N1 (centres unmarked) | 41
Cc1cccc(COc2cc(-c3ccc(C(=O)N4CC(C)NC(C)C4)cc3)cnc2N)c1F (centres unmarked) | 28
CC1CN(C(=O)c2ccc(-c3cnc(N)c(OCc4ccc(-c5csnn5)cc4)c3)cc2)CC(C)N1 (centres unmarked) | 17
CC1CN(C(=O)c2ccc(-c3cnc(N)c(OCc4cc(F)cc(C(F)(F)F)c4)c3)cc2)CC(C)N1 (centres unmarked) | 19
CC1CN(C(=O)c2ccc(-c3cnc(N)c(OCc4c(F)cccc4C(F)(F)F)c3)cc2)CC(C)N1 (centres unmarked) | 33
CC1CN(C(=O)c2ccc(-c3cnc(N)c(OCc4cc(F)c(F)c(F)c4)c3)cc2)CC(C)N1 (centres unmarked) | 11
CC1CN(C(=O)c2ccc(-c3cnc(N)c(OCc4ccccc4OC(F)F)c3)cc2)CC(C)N1 (centres unmarked) | 24
CC1CN(C(=O)c2ccc(-c3cnc(N)c(OCc4ccc(C(F)(F)F)cc4F)c3)cc2)CC(C)N1 (centres unmarked) | 24

SMILES | inhibition at 1 µM [%]
CC1CN(C(=O)c2ccc(-c3cnc(N)c(OCc4ccc(Br)cc4F)c3)cc2)CC(C)N1 (centres unmarked) | 29
CC1CN(C(=O)c2ccc(-c3cnc(N)c(OCc4cc(Br)cc(Br)c4)c3)cc2)CC(C)N1 (centres unmarked) | 42
CC1CN(C(=O)c2ccc(-c3cnc(N)c(OCc4ccc(-c5ccccc5C#N)cc4)c3)cc2)CC(C)N1 (centres unmarked) | 73
CC1CN(C(=O)c2ccc(-c3cnc(N)c(OCc4cccc(F)c4F)c3)cc2)CC(C)N1 (centres unmarked) | 19
CC1CN(C(=O)c2ccc(-c3cnc(N)c(OCc4ncc(C(F)(F)F)cc4Cl)c3)cc2)CC(C)N1 (centres unmarked) | 17
Cc1noc(C)c1-c1nc(COc2cc(-c3ccc(C(=O)N4CC(C)NC(C)C4)cc3)cnc2N)no1 (centres unmarked) | 14
COc1ccccc1-c1nc(COc2cc(-c3ccc(C(=O)N4CC(C)NC(C)C4)cc3)cnc2N)no1 (centres unmarked) | 9
CC1CN(C(=O)c2ccc(-c3cnc(N)c(OCc4noc(-c5cccc(C(F)(F)F)c5)n4)c3)cc2)CC(C)N1 (centres unmarked) | 30
CC1CN(C(=O)c2ccc(-c3cnc(N)c(OCc4nsc(Cl)n4)c3)cc2)CC(C)N1 (centres unmarked) | 6
CC1CN(C(=O)c2ccc(-c3cnc(N)c(OCc4cc(Cl)cc(Cl)c4)c3)cc2)CC(C)N1 (centres unmarked) | 26
CC1CN(C(=O)c2ccc(-c3cnc(N)c(OCc4cccc(Oc5ccccc5)c4)c3)cc2)CC(C)N1 (centres unmarked) | 32
CC1CN(C(=O)c2ccc(-c3cnc(N)c(OCc4ccc(C(=O)N5CCN(Cc6ccccc6)CC5)cc4)c3)cc2)CC(C)N1 (centres unmarked) | 15
CC1CN(C(=O)c2ccc(-c3cnc(N)c(OCc4cccc(C(=O)NCCc5ccccn5)c4)c3)cc2)CC(C)N1 (centres unmarked) | 18
CC1CN(C(=O)c2ccc(-c3cnc(N)c(OCc4cccc(C(=O)NC5CCN(Cc6ccccc6)C5)c4)c3)cc2)CC(C)N1 (centres unmarked) | 18
CC1CN(C(=O)c2ccc(-c3cnc(N)c(OCc4ccc(C(=O)NCCc5ccccn5)cc4)c3)cc2)CC(C)N1 (centres unmarked) | 19
CC1CN(C(=O)c2ccc(-c3cnc(N)c(OCc4ccc(C(=O)NCCN5CCCC5)cc4)c3)cc2)CC(C)N1 (centres unmarked) | 12
CCN1CCCC1CNC(=O)c1cccc(COc2cc(-c3ccc(C(=O)N4CC(C)NC(C)C4)cc3)cnc2N)c1 (centres unmarked) | 10
Cc1nc(COc2cc(-c3ccc(C(=O)N4CC(C)NC(C)C4)cc3)cnc2N)n(C)n1 (centres unmarked) | 13
CC1CN(C(=O)c2ccc(-c3cnc(N)c(OCc4nnnn4Cc4ccccc4)c3)cc2)CC(C)N1 (centres unmarked) | 15
CC1CN(C(=O)c2ccc(-c3cnc(N)c(OCc4nc5ccc(Cl)cc5[nH]4)c3)cc2)CC(C)N1 (centres unmarked) | 10
CC1CN(C(=O)c2ccc(-c3cnc(N)c(OCc4cc5c(C(F)(F)F)nn(C)c5s4)c3)cc2)CC(C)N1 (centres unmarked) | 13
CC1CN(C(=O)c2ccc(-c3cnc(N)c(OCc4nc(-c5ccccc5)nn4C)c3)cc2)CC(C)N1 (centres unmarked) | 13
CC(C)Cc1noc(COc2cc(-c3ccc(C(=O)N4CC(C)NC(C)C4)cc3)cnc2N)n1 (centres unmarked) | 14
CC1CN(C(=O)c2ccc(-c3cnc(N)c(OCc4ccc(Cl)cc4Br)c3)cc2)CC(C)N1 (centres unmarked) | 29
CCOC(=O)c1nc(COc2cc(-c3ccc(C(=O)N4CC(C)NC(C)C4)cc3)cnc2N)no1 (centres unmarked) | 13

Same assay, conditions: cells prefixed Ki; read-out: Met Ki

SMILES | Ki [µM]
CC(Oc1cc(C#CC(C)(C)NC(=O)N2CCN(C)CC2)cnc1N)c1c(Cl)ccc(F)c1Cl (centres unmarked) [Example I-432, 4-Methyl-piperazine-1-carboxylic acid (3-{6-amino-5-[1-(2,6-dichloro-3-fluoro-phenyl)-ethoxy]-pyridin-3-yl}-1,1-dimethyl-prop-2-ynyl)-amide] | 0.61
CC(Oc1cc(C#CC(C)(C)NC(=O)N2C[C@@H](C)N[C@@H](C)C2)cnc1N)c1c(Cl)ccc(F)c1Cl (stereo partly drawn) [Example I-433, (3R,5S)-3,5-Dimethyl-piperazine-1-carboxylic acid (3-{6-amino-5-[1-(2,6-dichloro-3-fluoro-phenyl)-ethoxy]-pyridin-3-yl}-1,1-dimethyl-prop-2-ynyl)-amide] | 1.5
CC(Oc1cc(C#CC(C)(C)NC(=O)N2CCC[C@@H]2CN2CCCC2)cnc1N)c1c(Cl)ccc(F)c1Cl (stereo partly drawn) [Example I-434, (R)-2-Pyrrolidin-1-ylmethyl-pyrrolidine-1-carboxylic acid (3-{6-amino-5-[1-(2,6-dichloro-3-fluoro-phenyl)-ethoxy]-pyridin-3-yl}-1,1-dimethyl-prop-2-ynyl)-amide] | 1.22
CC(Oc1cc(C#CC(C)(C)NC(=O)N2CCC[C@H]2CN2CCCC2)cnc1N)c1c(Cl)ccc(F)c1Cl (stereo partly drawn) [Example I-435, (S)-2-Pyrrolidin-1-ylmethyl-pyrrolidine-1-carboxylic acid (3-{6-amino-5-[1-(2,6-dichloro-3-fluoro-phenyl)-ethoxy]-pyridin-3-yl}-1,1-dimethyl-prop-2-ynyl)-amide] | 1.58
CC(Oc1cc(C#CC(C)(C)NC(=O)NCCN2CCOCC2)cnc1N)c1c(Cl)ccc(F)c1Cl (centres unmarked) [Example I-436, 1-(3-{6-Amino-5-[1-(2,6-dicloro-3-fluoro-phenyl)-ethoxy]-pyridin-3-yl}-1,1-dimethyl-prop-2-ynyl)-3-(2-morpholin-4-yl-ethyl)-urea] | 1.11
CC(Oc1cc(C#CC(C)(C)NC(=O)NCCN2CCCC2)cnc1N)c1c(Cl)ccc(F)c1Cl (centres unmarked) [Example I-437, 1-(3-{6-Amino-5-[1-(2,6-dicloro-3-fluoro-phenyl)-ethoxy]-pyridin-3-yl}-1,1-dimethyl-prop-2-ynyl)-3-(2-pyrrolidin-1-yl-ethyl)-urea] | 0.61
CC(Oc1cc(C#CC(C)(C)NC(=O)N2CCC(N3CCCC3)CC2)cnc1N)c1c(Cl)ccc(F)c1Cl (centres unmarked) [Example I-438, 4-Pyrrolidin-1-yl-pipendine-1-carboxylic acid (3-{6-amino-5-[1-(2,6-dichloro-3-fluoro-phenyl)-ethoxy]-pyridin-3-yl}-1,1-dimethyl-prop-2-ynyl)-amide] | 0.72
CC(Oc1cc(C#CC(=O)NC2CCCCC2)cnc1N)c1c(Cl)ccc(F)c1Cl (centres unmarked) [Example I-439, 3-{6-Amino-5-[1-(2,6-dichloro-3-fluoro-phenyl)-ethoxy]-pyridin-3-yl}-propynoic acid cyclohexylamide] | 0.46
CC(C)NC(=O)C#Cc1cnc(N)c(OC(C)c2c(Cl)ccc(F)c2Cl)c1 (centres unmarked) [Example I-440, 3-{6-Amino-5-[1-(2,6-dichloro-3-fluoro-phenyl)-ethoxy]-pyridin-3-yl}-propynoic acid isopropylamide] | 0.43
CC(Oc1cc(C#CC(C)(C)N)ccc1N)c1c(Cl)ccc(F)c1Cl (centres unmarked) [Example I-441, 4-(3-Amino-3-methyl-but-1-ynyl)-2-[1-(2,6-dichloro-3-fluoro-phenyl)-ethoxy]-phenylamine] | 1.06
C=Cc1cnc(N)c(OC(C)c2c(Cl)ccc(F)c2Cl)c1 (centres unmarked) [Example I-461, 3-[1-(2,6-Dichloro-3-fluoro-phenyl)-ethoxy]-5-vinyl-pyridin-2-ylamine] | 0.68
CC(Oc1cc(-c2cnn(CCN3CCCC3)c2)cnc1N)c1c(Cl)ccc(F)c1Cl (centres unmarked) [Example I-465, 3-[1-(2,6-Dichloro-3-fluoro-phenyl)-ethoxy]-5-[1-(2-pyrrolidin-1-yl-ethyl)-1H-pyrazol-4-yl]-pyridin-2-ylamine] | 0.34
